The record followed here is ChEMBL document CHEMBL4052645, “Discovery of potent and efficacious pyrrolopyridazines as dual JAK1/3 inhibitors” (Bioorg Med Chem Lett, 2017).

The target of experiment [1] is Tyrosine-protein kinase JAK1 (Homo sapiens, UniProt P23458). The experiment in a line: Inhibition of GST-tagged JAK1 (unknown origin) after 3 hrs by Caliper assay.
In experiment [2] the target is Non-receptor tyrosine-protein kinase TYK2 (Homo sapiens, UniProt P29597). The experiment in a line: Inhibition of His-tagged TYK2 (unknown origin) after 3 hrs by Caliper assay.
Experiment [3] deals with T1, Tyrosine-protein kinase JAK3 (Homo sapiens, UniProt P52333).
T1 sequence (P52333 whole entry): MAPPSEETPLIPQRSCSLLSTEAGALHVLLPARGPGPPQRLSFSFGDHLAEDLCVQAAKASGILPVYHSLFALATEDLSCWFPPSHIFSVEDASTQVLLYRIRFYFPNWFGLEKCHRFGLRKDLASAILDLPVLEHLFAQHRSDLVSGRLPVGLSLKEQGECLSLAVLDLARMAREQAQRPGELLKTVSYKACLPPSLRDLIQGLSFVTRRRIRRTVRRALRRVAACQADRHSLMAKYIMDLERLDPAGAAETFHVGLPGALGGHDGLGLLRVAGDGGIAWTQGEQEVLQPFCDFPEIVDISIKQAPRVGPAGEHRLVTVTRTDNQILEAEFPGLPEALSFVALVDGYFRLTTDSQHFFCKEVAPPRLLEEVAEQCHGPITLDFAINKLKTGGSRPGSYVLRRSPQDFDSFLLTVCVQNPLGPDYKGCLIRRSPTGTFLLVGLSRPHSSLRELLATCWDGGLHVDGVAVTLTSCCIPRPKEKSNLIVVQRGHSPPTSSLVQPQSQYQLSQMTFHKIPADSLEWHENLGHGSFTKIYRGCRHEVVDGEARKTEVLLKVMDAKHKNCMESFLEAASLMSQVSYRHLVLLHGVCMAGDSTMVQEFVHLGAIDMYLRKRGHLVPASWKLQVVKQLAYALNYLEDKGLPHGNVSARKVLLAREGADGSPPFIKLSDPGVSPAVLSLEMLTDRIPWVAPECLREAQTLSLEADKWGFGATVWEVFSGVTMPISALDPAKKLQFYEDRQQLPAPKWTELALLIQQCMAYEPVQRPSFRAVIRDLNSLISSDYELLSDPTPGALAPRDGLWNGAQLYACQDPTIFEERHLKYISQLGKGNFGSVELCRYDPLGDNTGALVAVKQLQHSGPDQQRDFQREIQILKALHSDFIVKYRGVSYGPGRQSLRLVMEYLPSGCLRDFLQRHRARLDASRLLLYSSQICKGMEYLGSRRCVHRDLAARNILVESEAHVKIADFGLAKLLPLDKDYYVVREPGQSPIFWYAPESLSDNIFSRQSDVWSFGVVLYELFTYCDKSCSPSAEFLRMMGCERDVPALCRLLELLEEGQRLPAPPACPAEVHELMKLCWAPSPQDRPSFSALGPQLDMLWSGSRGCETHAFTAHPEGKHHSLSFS
The experiment in a line: Inhibition of JAK3 (unknown origin) using CSKtide as substrate after 30 mins in presence of [gamma33P]ATP by liquid scintillation counting method.

Experiment [4] deals with Tyrosine-protein kinase JAK2 (Homo sapiens, UniProt O60674). In words: Inhibition of GST-tagged JAK2 (unknown origin) after 3 hrs by Caliper assay.
In a further experiment the target is JAK3/JAK1 (Homo sapiens, UniProt P23458+P52333). In words: Inhibition of JAK1/JAK3 in human whole blood assessed as reduction in IL-2 induced IFN-gamma production after 18 hrs by ELISA. Format: protein-complex assay.
The nature of experiment [5]: Selectivity ratio of IC50 for JAK2 dependent EPO-induced STAT5A phosphorylation in human TF1 cells to IC50 for JAK1/JAK3 dependent IL2-induced STAT3 phosphorylation in human PBMC derived T-cells.
In experiment [6] the target is Voltage-gated inwardly rectifying potassium channel KCNH2 (Homo sapiens, UniProt Q12809). The experiment in a line: Inhibition of human ERG by flux-based assay.
Sequence of Voltage-gated inwardly rectifying potassium channel KCNH2 (Q12809 whole entry): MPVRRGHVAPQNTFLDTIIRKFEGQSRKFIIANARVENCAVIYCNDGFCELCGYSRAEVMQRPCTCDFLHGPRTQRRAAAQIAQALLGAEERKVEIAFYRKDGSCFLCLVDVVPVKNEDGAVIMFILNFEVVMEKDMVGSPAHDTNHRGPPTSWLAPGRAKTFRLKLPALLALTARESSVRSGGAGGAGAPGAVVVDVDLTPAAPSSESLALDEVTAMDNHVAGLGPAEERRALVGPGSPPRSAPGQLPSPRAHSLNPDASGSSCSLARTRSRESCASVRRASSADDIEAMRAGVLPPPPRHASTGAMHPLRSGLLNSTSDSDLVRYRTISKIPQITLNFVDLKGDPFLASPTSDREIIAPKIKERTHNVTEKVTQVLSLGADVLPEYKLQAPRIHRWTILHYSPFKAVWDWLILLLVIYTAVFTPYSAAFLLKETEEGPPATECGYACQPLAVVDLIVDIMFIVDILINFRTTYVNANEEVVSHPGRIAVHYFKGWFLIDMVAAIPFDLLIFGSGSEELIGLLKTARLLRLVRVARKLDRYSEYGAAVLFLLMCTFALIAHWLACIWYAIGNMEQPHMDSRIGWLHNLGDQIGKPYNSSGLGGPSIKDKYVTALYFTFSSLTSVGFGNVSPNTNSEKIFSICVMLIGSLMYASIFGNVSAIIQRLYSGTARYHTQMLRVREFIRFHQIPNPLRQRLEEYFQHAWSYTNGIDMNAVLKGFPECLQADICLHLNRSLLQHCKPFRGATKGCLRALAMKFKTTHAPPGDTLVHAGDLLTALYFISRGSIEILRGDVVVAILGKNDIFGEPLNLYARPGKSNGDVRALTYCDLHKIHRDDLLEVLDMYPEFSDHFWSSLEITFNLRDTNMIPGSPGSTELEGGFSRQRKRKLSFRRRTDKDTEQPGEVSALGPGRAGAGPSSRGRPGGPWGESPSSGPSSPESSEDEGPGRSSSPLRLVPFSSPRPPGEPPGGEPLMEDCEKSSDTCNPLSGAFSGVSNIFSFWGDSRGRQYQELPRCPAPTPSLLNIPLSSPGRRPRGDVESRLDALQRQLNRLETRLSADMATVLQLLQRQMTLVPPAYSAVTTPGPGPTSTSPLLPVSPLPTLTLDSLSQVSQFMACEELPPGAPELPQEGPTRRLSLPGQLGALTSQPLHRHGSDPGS

Sequence of Non-receptor tyrosine-protein kinase TYK2 (P29597 whole entry): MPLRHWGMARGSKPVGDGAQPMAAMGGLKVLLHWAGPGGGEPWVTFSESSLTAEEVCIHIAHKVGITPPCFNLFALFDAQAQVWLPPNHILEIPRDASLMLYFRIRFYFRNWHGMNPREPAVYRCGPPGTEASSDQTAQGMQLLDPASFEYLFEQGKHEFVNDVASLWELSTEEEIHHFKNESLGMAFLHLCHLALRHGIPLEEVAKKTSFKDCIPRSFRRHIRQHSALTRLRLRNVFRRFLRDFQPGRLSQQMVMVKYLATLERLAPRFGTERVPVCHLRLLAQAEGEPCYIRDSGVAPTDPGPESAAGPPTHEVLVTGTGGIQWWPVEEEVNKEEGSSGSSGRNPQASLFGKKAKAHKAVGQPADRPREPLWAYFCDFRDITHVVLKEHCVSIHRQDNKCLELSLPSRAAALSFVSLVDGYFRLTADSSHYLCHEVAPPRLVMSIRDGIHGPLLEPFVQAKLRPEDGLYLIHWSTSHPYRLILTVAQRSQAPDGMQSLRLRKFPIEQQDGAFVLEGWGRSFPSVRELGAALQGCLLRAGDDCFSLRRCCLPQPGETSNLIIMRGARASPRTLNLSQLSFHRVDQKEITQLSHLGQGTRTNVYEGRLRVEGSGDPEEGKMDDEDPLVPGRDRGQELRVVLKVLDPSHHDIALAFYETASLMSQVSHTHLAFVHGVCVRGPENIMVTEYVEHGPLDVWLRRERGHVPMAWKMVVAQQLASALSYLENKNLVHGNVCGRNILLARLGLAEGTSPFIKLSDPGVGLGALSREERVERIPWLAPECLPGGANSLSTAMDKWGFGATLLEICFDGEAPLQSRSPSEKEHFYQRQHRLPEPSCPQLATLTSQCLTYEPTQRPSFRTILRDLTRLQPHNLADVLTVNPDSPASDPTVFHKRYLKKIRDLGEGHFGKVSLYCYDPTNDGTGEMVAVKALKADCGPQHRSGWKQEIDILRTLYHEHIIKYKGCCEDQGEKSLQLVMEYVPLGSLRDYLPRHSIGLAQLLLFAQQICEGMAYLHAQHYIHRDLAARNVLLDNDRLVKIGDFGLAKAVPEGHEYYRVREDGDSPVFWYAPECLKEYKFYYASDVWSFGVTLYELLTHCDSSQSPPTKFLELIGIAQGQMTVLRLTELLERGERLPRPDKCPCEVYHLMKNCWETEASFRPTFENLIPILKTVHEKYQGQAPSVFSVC
Sequence of Tyrosine-protein kinase JAK1 (P23458 whole entry): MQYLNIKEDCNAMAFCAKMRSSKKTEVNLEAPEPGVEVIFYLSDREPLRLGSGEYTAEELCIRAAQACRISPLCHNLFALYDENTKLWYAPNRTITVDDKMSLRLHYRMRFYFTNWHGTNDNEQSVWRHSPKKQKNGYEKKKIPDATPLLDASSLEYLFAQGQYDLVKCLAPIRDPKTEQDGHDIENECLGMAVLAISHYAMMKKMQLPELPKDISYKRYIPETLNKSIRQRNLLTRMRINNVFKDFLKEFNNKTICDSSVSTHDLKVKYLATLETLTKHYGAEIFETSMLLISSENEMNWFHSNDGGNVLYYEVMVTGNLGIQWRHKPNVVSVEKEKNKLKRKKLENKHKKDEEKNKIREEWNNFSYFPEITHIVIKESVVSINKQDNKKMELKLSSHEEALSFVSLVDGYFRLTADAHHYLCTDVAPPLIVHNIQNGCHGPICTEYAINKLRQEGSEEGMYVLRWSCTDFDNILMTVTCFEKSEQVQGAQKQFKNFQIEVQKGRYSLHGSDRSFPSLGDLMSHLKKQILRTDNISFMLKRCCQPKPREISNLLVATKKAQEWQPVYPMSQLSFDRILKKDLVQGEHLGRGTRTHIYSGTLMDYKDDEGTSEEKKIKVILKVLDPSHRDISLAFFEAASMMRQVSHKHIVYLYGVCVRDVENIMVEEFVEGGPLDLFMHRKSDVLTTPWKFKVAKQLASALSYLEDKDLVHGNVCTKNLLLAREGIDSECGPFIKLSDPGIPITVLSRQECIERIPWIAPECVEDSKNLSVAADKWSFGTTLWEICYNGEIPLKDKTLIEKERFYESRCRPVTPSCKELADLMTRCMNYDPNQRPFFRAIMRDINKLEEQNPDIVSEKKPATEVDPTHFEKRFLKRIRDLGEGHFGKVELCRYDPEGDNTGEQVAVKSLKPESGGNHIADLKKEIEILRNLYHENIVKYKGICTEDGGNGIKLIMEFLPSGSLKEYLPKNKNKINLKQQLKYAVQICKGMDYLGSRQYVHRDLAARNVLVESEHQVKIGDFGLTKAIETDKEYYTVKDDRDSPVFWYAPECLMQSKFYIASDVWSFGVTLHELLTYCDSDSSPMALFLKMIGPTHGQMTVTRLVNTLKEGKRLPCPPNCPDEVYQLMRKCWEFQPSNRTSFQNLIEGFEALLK
Sequence of JAK3/JAK1 (P23458 whole entry, one chain of several): as the sequence (P23458 whole entry) above
Sequence of Tyrosine-protein kinase JAK2 (O60674 whole entry): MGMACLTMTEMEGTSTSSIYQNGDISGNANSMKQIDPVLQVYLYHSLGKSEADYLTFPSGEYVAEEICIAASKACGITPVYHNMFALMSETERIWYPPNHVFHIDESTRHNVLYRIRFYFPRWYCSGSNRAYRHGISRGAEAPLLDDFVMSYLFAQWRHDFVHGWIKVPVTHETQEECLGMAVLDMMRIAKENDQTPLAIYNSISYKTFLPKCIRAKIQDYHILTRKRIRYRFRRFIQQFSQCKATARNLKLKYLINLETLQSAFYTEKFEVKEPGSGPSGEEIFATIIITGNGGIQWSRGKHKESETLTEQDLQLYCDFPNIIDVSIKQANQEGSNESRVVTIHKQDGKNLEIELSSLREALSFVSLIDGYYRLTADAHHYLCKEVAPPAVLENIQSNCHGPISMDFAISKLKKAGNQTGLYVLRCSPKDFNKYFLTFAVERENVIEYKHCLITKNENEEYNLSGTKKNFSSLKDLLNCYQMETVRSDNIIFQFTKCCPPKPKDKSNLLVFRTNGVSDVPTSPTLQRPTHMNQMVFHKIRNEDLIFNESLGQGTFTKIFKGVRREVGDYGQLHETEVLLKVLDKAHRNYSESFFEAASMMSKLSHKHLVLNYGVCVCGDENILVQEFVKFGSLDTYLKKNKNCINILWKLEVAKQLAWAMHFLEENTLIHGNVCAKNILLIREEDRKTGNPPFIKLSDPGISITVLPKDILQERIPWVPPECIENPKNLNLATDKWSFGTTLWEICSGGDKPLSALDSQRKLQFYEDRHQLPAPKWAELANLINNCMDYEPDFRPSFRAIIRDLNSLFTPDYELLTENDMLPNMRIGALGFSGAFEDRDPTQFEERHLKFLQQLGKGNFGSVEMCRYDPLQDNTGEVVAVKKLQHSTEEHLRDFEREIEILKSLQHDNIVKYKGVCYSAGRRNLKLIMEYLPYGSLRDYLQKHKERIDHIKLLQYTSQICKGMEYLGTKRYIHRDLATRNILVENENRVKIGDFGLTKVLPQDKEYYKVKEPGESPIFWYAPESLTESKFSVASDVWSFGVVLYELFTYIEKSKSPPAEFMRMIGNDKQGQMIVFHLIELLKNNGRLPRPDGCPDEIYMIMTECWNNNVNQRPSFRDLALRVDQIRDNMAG

With `CC1(C)[C@H](Nc2c(C(N)=O)cnn3cc(-c4cccc(Cl)c4)cc23)CC[C@]1(C)N`, the IC50 in experiment [1] was determined as 1.3 nM; in experiment [2] it was 20 nM; in experiment [3], 1 nM; in experiment [4], 17 nM; on JAK3/JAK1, 780 nM.

Turning to `COc1cccc(-c2cc3c(N[C@@H]4CC[C@](C)(N)C4(C)C)c(C(N)=O)cnn3c2)c1`, the IC50 in experiment [1] is 1 nM; in experiment [2], 12 nM; in experiment [3], 0.4 nM; in experiment [4], 15 nM; on JAK3/JAK1, 200 nM; in experiment [6] it was 7200 nM. Moreover, the “Ratio IC50” value in experiment [5] worked out at 305.

For `CC1(C)[C@H](Nc2c(C(N)=O)cnn3cc(-c4cncc(F)c4)cc23)CC[C@]1(C)N`, the IC50 in experiment [1] turned out to be 6.6 nM; in experiment [2], 60 nM; in experiment [3], 1.9 nM; in experiment [4] it was 44 nM; at JAK3/JAK1, 220 nM.

On to `CC1(C)[C@H](Nc2c(C(N)=O)cnn3cc(-c4ccccc4F)cc23)CC[C@]1(C)N`, for which the IC50 in experiment [1] was 1.2 nM; in experiment [2], 15 nM; in experiment [3] it was 1.5 nM; in experiment [4], 17 nM; at JAK3/JAK1, 630 nM.

Regarding `CC1(C)[C@H](Nc2c(C(N)=O)cnn3cc(-c4ccc(Cl)cc4)cc23)CC[C@]1(C)N`, the IC50 is 0.9 nM in experiment [1], 10 nM in experiment [2], 0.8 nM in experiment [3] and 15 nM in experiment [4].

For `CC1(C)[C@H](Nc2c(C(N)=O)cnn3cc(-c4cccc(C#N)c4)cc23)CC[C@]1(C)N`, the 50% inhibitory concentration (IC50) in experiment [1] was 7.2 nM; in experiment [2], 55 nM; in experiment [3], 3.8 nM; in experiment [4], 47 nM; at JAK3/JAK1, > 1000 nM.

On to `Cc1cnccc1-c1cc2c(N[C@@H]3CC[C@](C)(N)C3(C)C)c(C(N)=O)cnn2c1`, for which the IC50 is 2.4 nM in experiment [1]; 29 nM in experiment [2]; 4 nM in experiment [3]; 19 nM in experiment [4]; 75 nM at JAK3/JAK1; > 80000 nM in experiment [6]. Besides, the “Ratio IC50” value in experiment [5] is reported as 250.

`CC1(C)[C@H](Nc2c(C(N)=O)cnn3cc(-c4ccnc(F)c4)cc23)CC[C@]1(C)N`: the IC50 came out at 3.3 nM in experiment [1]; 59 nM in experiment [2]; 1.6 nM in experiment [3]; 38 nM in experiment [4]; 270 nM on JAK3/JAK1.

In the case of `Cc1ccncc1-c1cc2c(N[C@@H]3CC[C@](C)(N)C3(C)C)c(C(N)=O)cnn2c1`, the IC50 was found to be 180 nM in experiment [2], 140 nM in experiment [4], 97 nM on JAK3/JAK1 and 18000 nM in experiment [6]. Besides, the “Ratio IC50” value in experiment [5] came out at 120.

`Cc1cc(-c2cc3c(N[C@@H]4CC[C@](C)(N)C4(C)C)c(C(N)=O)cnn3c2)ccn1`: the IC50 is 0.6 nM in experiment [1]; 5.7 nM in experiment [2]; 0.6 nM in experiment [3]; 3.5 nM in experiment [4]; 55 nM on JAK3/JAK1; 30000 nM in experiment [6]. The “Ratio IC50” value in experiment [5] came out at 8.

Consider `CC1(C)[C@H](Nc2c(C(N)=O)cnn3cc(-c4cccnc4)cc23)CC[C@]1(C)N`, for which the 50% inhibitory concentration (IC50) in experiment [2] worked out at 34 nM; in experiment [3], 0.6 nM; in experiment [4] it was 11 nM; on JAK3/JAK1, 110 nM.

On to `COc1ccc(-c2cc3c(N[C@@H]4CC[C@](C)(N)C4(C)C)c(C(N)=O)cnn3c2)cc1`, for which the IC50 in experiment [1] amounted to 0.6 nM; in experiment [2], 9.2 nM; in experiment [3] it was 1.5 nM; in experiment [4] it was 15 nM; at JAK3/JAK1 it was 170 nM; in experiment [6] it was 13800 nM. Besides, the “Ratio IC50” value in experiment [5] is 46.

In the case of `CC1(C)[C@H](Nc2c(C(N)=O)cnn3cc(-c4ccccc4Cl)cc23)CC[C@]1(C)N`, the IC50 in experiment [1] is 0.8 nM; in experiment [2], 47 nM; in experiment [3] it was 1.3 nM; in experiment [4] it was 27 nM; on JAK3/JAK1 it was > 1000 nM.

For the compound `CC(C)Oc1ccc(-c2cc3c(N[C@@H]4CC[C@](C)(N)C4(C)C)c(C(N)=O)cnn3c2)cn1`, the IC50 in experiment [1] was determined as 1.2 nM; in experiment [2] it was 30 nM; in experiment [3], 0.5 nM; in experiment [4], 20 nM; at JAK3/JAK1, 400 nM; in experiment [6] it was 5300 nM. The “Ratio IC50” value in experiment [5] is reported as 2.

`CC1(C)[C@H](Nc2c(C(N)=O)cnn3cc(-c4ccc(C#N)nc4)cc23)CC[C@]1(C)N`: the IC50 was 6.6 nM in experiment [1]; 47 nM in experiment [2]; 1 nM in experiment [3]; 29 nM in experiment [4]; 430 nM on JAK3/JAK1.

In the case of `CCOc1ccc(-c2cc3c(N[C@@H]4CC[C@](C)(N)C4(C)C)c(C(N)=O)cnn3c2)cn1`, the half-inhibitory concentration (IC50) turned out to be 4 nM in experiment [1]; 38 nM in experiment [2]; 1.1 nM in experiment [3]; 30 nM in experiment [4]; 800 nM at JAK3/JAK1; 17000 nM in experiment [6]. In experiment [5], the “Ratio IC50” value was 120.

`Cc1ccc(-c2cc3c(N[C@@H]4CC[C@](C)(N)C4(C)C)c(C(N)=O)cnn3c2)cc1`: the IC50 in experiment [1] is 0.8 nM; in experiment [2], 8.6 nM; in experiment [3] it was 0.7 nM; in experiment [4], 14 nM; at JAK3/JAK1, > 2000 nM.

On to `Cc1ccccc1-c1cc2c(N[C@@H]3CC[C@](C)(N)C3(C)C)c(C(N)=O)cnn2c1`, for which the IC50 in experiment [1] is 0.7 nM; in experiment [2], 51 nM; in experiment [3], 1.8 nM; in experiment [4], 49 nM; at JAK3/JAK1 it was 490 nM.

For the compound `CC1(C)[C@H](Nc2c(C(N)=O)cnn3cc(-c4ccc(F)cc4)cc23)CC[C@]1(C)N`, the IC50 is 1.2 nM in experiment [1]; 14 nM in experiment [2]; 2.1 nM in experiment [3]; 27 nM in experiment [4]; 420 nM on JAK3/JAK1; 10200 nM in experiment [6]. Also, the “Ratio IC50” value in experiment [5] is 230.

Turning to `CC1(C)[C@H](Nc2c(C(N)=O)cnn3cc(-c4cccc(F)c4)cc23)CC[C@]1(C)N`, the IC50 in experiment [1] is 1.2 nM; in experiment [2], 22 nM; in experiment [3] it was 1.6 nM; in experiment [4], 22 nM; on JAK3/JAK1, > 1000 nM; in experiment [6] it was 7600 nM.

In the case of `CC1(C)[C@H](Nc2c(C(N)=O)cnn3cc(-c4ccccc4C#N)cc23)CC[C@]1(C)N`, the IC50 in experiment [1] is 1.6 nM; in experiment [2], 34 nM; in experiment [3], 1.9 nM; in experiment [4] it was 25 nM; on JAK3/JAK1, 500 nM. The “Ratio IC50” value in experiment [5] is 240.

For the compound `CC1(C)[C@H](Nc2c(C(N)=O)cnn3cc(-c4ccc(C#N)cc4)cc23)CC[C@]1(C)N`, the IC50 turned out to be 0.9 nM in experiment [1]; 8.6 nM in experiment [2]; 1 nM in experiment [3]; 7.3 nM in experiment [4]; 66 nM at JAK3/JAK1.

For the compound `COc1ccccc1-c1cc2c(N[C@@H]3CC[C@](C)(N)C3(C)C)c(C(N)=O)cnn2c1`, the IC50 in experiment [1] stood at 0.5 nM; in experiment [2] it was 21 nM; in experiment [3] it was 1.3 nM; in experiment [4] it was 20 nM; on JAK3/JAK1, 680 nM; in experiment [6], 7500 nM. The “Ratio IC50” value in experiment [5] was found to be 562.

Take `CC1(C)[C@H](Nc2c(C(N)=O)cnn3cc(-c4cncnc4)cc23)CC[C@]1(C)N`: the IC50 came out at 28 nM in experiment [1]; 190 nM in experiment [2]; 11 nM in experiment [3]; 160 nM in experiment [4]; 240 nM at JAK3/JAK1; 8500 nM in experiment [6]. The “Ratio IC50” value in experiment [5] is 180.

On to `COc1cc(-c2cc3c(N[C@@H]4CC[C@](C)(N)C4(C)C)c(C(N)=O)cnn3c2)ccn1`, for which the IC50 came out at 2.3 nM in experiment [1]; 36 nM in experiment [2]; 2.8 nM in experiment [3]; 36 nM in experiment [4]; 350 nM on JAK3/JAK1. Moreover, the “Ratio IC50” value in experiment [5] is recorded as 86.
